Measured values: patent publication EP0326331B1, “Substituted quinolines and cinnolines” (Dow AgroSciences LLC, priority 1988, dated 1989)

How the values were obtained:
[1] = test system: Venturia inaequalis (apple scab); test: Test 1 greenhouse foliar spray screen, apple scab on apple seedling; assay type: in vivo; details: Venturia inaequalis; Test 1, foliar spray on apple seedling; disease control rating at 400 ppm / 100 ppm; read-out: APPL SCAB
[2] = test system: melon aphids (Aphis gossypii Glover); test: Mite/insect screen, MA; assay type: in vivo; details: Aphis gossypii, foliar, percent mortality, foliar spray on squash, read-out: MA RESULTS %; for mortality at 200 ppm: rate 200 ppm; for mortality at 400 ppm: rate 400 ppm
Summary of the method: (§1)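 Formulation: acetone/alcohol 50:50 + sulfonate/nonionic emulsifiers, water-diluted to indicated concs. Spray both leaf surfaces to runoff, 10 psi; dry 1 h. Armyworm: 2 excised uninfested leaves in Petri dish. Score % mortality after standard exposure.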

[3] = test system: Pyricularia oryzae (rice blast); test: whole plant or invertebrate; assay type: in vivo; details: for pest or weed control at 400 ppm: Pyricularia oryzae, foliar, read-out: RICE BLAST, Test 1, foliar spray on rice, disease control rating at 400 ppm / 100 ppm
[4] = test system: Pseudoperonospora cubensis (downy mildew); test: Test 1 greenhouse foliar spray screen, downy mildew on squash; assay type: in vivo; details: for pest or weed control at 400 ppm: Pseudoperonospora cubensis, foliar, Test 1, foliar spray on squash, disease control rating at 400 ppm / 100 ppm, read-out: DOWN MDEW
[5] = test system: Twospotted spider mites (Tetranychus urticae Koch); test: Mite/insect screen, SM; assay type: in vivo; details: Tetranychus urticae, foliar, percent mortality, foliar spray on squash, read-out: SM RESULTS %; for mortality at 200 ppm: rate 200 ppm; for mortality at 400 ppm: rate 400 ppm
Summary of the method: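 Compounds dissolved in 50:50 acetone/alcohol containing sulfonate/nonionic emulsifier blends, then diluted with water to the indicated concentrations. Leaves sprayed on both surfaces to runoff at 10 psi and dried one hour. Percent mortality scored after standard exposure periods.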

[6] = test system: Cercospora beticola (leaf spot); test: Test 1 greenhouse foliar spray screen, leaf spot on sugar beet; assay type: in vivo; details: Cercospora beticola; Test 1, foliar spray on sugar beet; disease control rating at 400 ppm / 100 ppm
[7] = test system: plant pathogens; test: Fungicidal efficacy against a broad spectrum of plant pathogens (summary of screen); assay type: in vivo; details: summary statement in the description
[8] = test system: southern armyworm (Spodopetra eridania Cramer); test: Mite/insect screen, SAW; assay type: in vivo; details: Spodoptera eridania, foliar, percent mortality, foliar spray on squash, read-out: SAW RESULTS %; for mortality at 200 ppm: rate 200 ppm; for mortality at 400 ppm: rate 400 ppm
Summary of the method: as §1

[9] = test system: Puccinia recondita tritici (leaf rust); test: Test 1 greenhouse foliar spray screen, leaf rust on wheat; assay type: in vivo; details: Puccinia recondita, foliar, Test 1, foliar spray on wheat; disease control rating at 400 ppm / 100 ppm
[10] = test system: Botrytis cinerea (gray mold); test: Test 1 greenhouse foliar spray screen, gray mold on grape berries; assay type: in vivo; details: Botrytis cinerea, foliar; Test 1, spray on grape berries; disease control rating at 400 ppm / 100 ppm
[11] = test system: Septoria tritici (leaf blotch); test: Test 1 greenhouse foliar spray screen, leaf blotch on wheat; assay type: in vivo; details: Zymoseptoria tritici; Test 1, foliar spray on wheat; disease control rating at 400 ppm / 100 ppm; read-out: LEAF BLOT
[12] = test system: Erysiphe graminis tritici (powdery mildew); test: Test 1 greenhouse foliar spray screen, powdery mildew on wheat; assay type: in vivo; details: Blumeria graminis, foliar, Test 1, foliar spray on wheat; disease control rating at 400 ppm / 100 ppm; read-out: POWD MDEW
[13] = test system: corn rootworm; test: Mite/insect screen, CRW; assay type: in vivo; details: percent mortality, read-out: CRW RESULTS %; for mortality at 12 ppm: CRW rate 12.00 ppm; for mortality at 24 ppm: CRW rate 24.00 ppm
Summary of the method: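 Percent mortality is evaluated once the standard exposure period ends. Test material is applied as a water dilution of an acetone/alcohol (50:50) stock carrying two sulfonate/nonionic emulsifiers (23 and 13 g per liter).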

[14] = test system: CUCURBIT DOWNY MILDEW; test: Greenhouse combination test with known fungicide, foliar spray; details: 1-9 rating scale, time 4 hours
Experimental: (§2) The test compounds were formulated for application by dissolving 50 mg of the compound into 1.25 ml of solvent. The solvent was prepared by mixing 50 ml of "Tween 20" with 475 ml of acetone and 475 ml of ethanol. The solvent/compound solution was diluted to 125 ml with deionized water. The resulting formulation contains 400 ppm test chemical. Lower concentrations were obtained by serial dilution with the solvent-surfactant mixture.
(§3) The formulated technical compounds were sprayed on all foliar surfaces of the host plants (or cut berry) to past run-off. Single pots of each host plant were placed on raised, revolving pedestals in a fume hood. Test solutions were sprayed on all foliar surfaces. All treatments were allowed to dry and the plants were inoculated with the appropriate pathogens within 2-4 hours.
(§4) In the tables, the time given under "Time in hours" is the number of hours elapsing between treatment and inoculation. […] In such cases, curative activity was being tested. […] In such cases, residual or protectant activity was tested. […] The results were evaluated on a 1-9 rating scale. These ratings represent the following percent disease control: 1 = 0-19%, 2 = 20-29%, 3 = 30-39%, 4 = 40-59%, 5 = 60-74%, 6 = 75-89%, 7 = 90-96%, 8 = 97-99%, and 9 = 100%.

[15] = test system: CUCURBIT POWDERY MILDEW; test: as above; details: 1-9 rating scale, time 4 hours
Experimental: as §2, §3, §4

[16] = summary statement in the description

Question: For `Cc1ccc(CCOc2ccnc3ccccc23)cc1` [Example 210, 4-[2-(4-methylphenyl)ethoxy]quinoline], which pest or weed control at 400 ppm [1] is on record?
Answer: Its pest or weed control at 400 ppm is 0 to 19%.

Question: What about the mortality at 200 ppm [2] of the same molecule?
Answer: The mortality at 200 ppm was 0%.

Question: What about the pest or weed control at 400 ppm [3] of the same molecule?
Answer: Its pest or weed control at 400 ppm is 90 to 100%.

Question: What about the pest or weed control at 400 ppm [4] of the same molecule?
Answer: The pest or weed control at 400 ppm was 90 to 100%.

Question: And the “activity against downy mildew” value [4, 16]?
Answer: Its value is “particularly excellent activity”.

Question: What about the mortality at 200 ppm [5] of the same molecule?
Answer: Its mortality at 200 ppm is 0%.

Question: What about the pest or weed control at 400 ppm [6] of the same molecule?
Answer: The pest or weed control at 400 ppm was 20 to 89%.

Question: And the “activity against a broad spectrum of plant pathogens” value [7]?
Answer: Its value is “particularly excellent activity”.

Question: And the mortality at 200 ppm [8]?
Answer: Its mortality at 200 ppm is 0%.

Question: And the pest or weed control at 400 ppm [9]?
Answer: Its pest or weed control at 400 ppm is 90 to 100%.

Question: What about the pest or weed control at 400 ppm [10] of the same molecule?
Answer: The pest or weed control at 400 ppm was 0 to 19%.

Question: And the pest or weed control at 400 ppm [11]?
Answer: The pest or weed control at 400 ppm was 90 to 100%.

Question: What about the pest or weed control at 400 ppm [12] of the same molecule?
Answer: The pest or weed control at 400 ppm was 90 to 100%.

Question: What about the mortality at 12 ppm [13] of the same molecule?
Answer: The mortality at 12 ppm was 0%.

Question: What does the source list for `COc1ccccc1CCOc1ccnc2c(F)cccc12` [Example 228, 8-fluoro-4-[2-(2-methoxyphenyl)ethoxy]quinoline]?
Answer: pest or weed control at 400 ppm [1]: 90 to 100%; mortality at 200 ppm [2]: 0%; mortality at 400 ppm [2]: 80%; pest or weed control at 400 ppm [3]: 90 to 100%; pest or weed control at 400 ppm [4]: 90 to 100%; mortality at 200 ppm [5]: 0%; mortality at 400 ppm [5]: 0%; pest or weed control at 400 ppm [6]: 20 to 89%; activity against a broad spectrum of plant pathogens [7]: particularly excellent activity; mortality at 200 ppm [8]: 0%; mortality at 400 ppm [8]: 0%; pest or weed control at 400 ppm [9]: 90 to 100%; pest or weed control at 400 ppm [10]: 0 to 19%; pest or weed control at 400 ppm [11]: 90 to 100%; pest or weed control at 400 ppm [12]: 90 to 100%; mortality at 12 ppm [13]: 0%; mortality at 24 ppm [13]: 0%

Question: For `CC(C)(C)c1ccc(CCCc2ccnc3c(F)cccc23)cc1` [Example 260, 4-[3-[4-(t-butyl)phenyl]propyl]-8-fluoroquinoline], which pest or weed control at 400 ppm [1] is on record?
Answer: The pest or weed control at 400 ppm was 0 to 19%.

Question: What about the mortality at 200 ppm [2] of the same molecule?
Answer: The mortality at 200 ppm was 100%.

Question: What about the mortality at 400 ppm [2] of the same molecule?
Answer: The mortality at 400 ppm was 0%.

Question: What about the pest or weed control at 400 ppm [3] of the same molecule?
Answer: Its pest or weed control at 400 ppm is 90 to 100%.

Question: What about the “activity against rice blast” value [3, 16] of the same molecule?
Answer: The value was “particularly excellent activity”.

Question: And the pest or weed control at 400 ppm [4]?
Answer: The pest or weed control at 400 ppm was 90 to 100%.

Question: What about the mortality at 200 ppm [5] of the same molecule?
Answer: Its mortality at 200 ppm is 100%.

Question: What about the mortality at 400 ppm [5] of the same molecule?
Answer: The mortality at 400 ppm was 0%.

Question: What about the pest or weed control at 400 ppm [6] of the same molecule?
Answer: The pest or weed control at 400 ppm was 20 to 89%.

Question: What about the “activity against a broad spectrum of plant pathogens” value [7] of the same molecule?
Answer: The value was “particularly excellent activity”.

Question: What about the mortality at 200 ppm [8] of the same molecule?
Answer: The mortality at 200 ppm was 100%.

Question: And the mortality at 400 ppm [8]?
Answer: Its mortality at 400 ppm is 40%.

Question: What about the pest or weed control at 400 ppm [9] of the same molecule?
Answer: Its pest or weed control at 400 ppm is 90 to 100%.

Question: And the pest or weed control at 400 ppm [10]?
Answer: The pest or weed control at 400 ppm was 0 to 19%.

Question: And the pest or weed control at 400 ppm [11]?
Answer: The pest or weed control at 400 ppm was 90 to 100%.

Question: What about the pest or weed control at 400 ppm [12] of the same molecule?
Answer: The pest or weed control at 400 ppm was 90 to 100%.

Question: And the mortality at 12 ppm [13]?
Answer: Its mortality at 12 ppm is 0%.

Question: What about the mortality at 24 ppm [13] of the same molecule?
Answer: Its mortality at 24 ppm is 40%.

Question: Which RESULTS ([14]; nuarimol alone 0.25 ppm) does the source give for `OC(c1ccc(F)cc1)(c1cncnc1)c1ccccc1Cl` (stereo not drawn) [nuarimol, reference compound] here?
Answer: The RESULTS was 1.0.

Question: What about the RESULTS ([14]; nuarimol alone 0.50 ppm) of the same molecule?
Answer: The RESULTS was 1.0.

Question: What about the RESULTS ([14]; nuarimol alone 1.00 ppm) of the same molecule?
Answer: Its RESULTS is 1.0.

Question: What about the RESULTS ([14]; nuarimol alone 2.00 ppm) of the same molecule?
Answer: Its RESULTS is 1.0.

Question: And the RESULTS ([15]; nuarimol alone 0.25 ppm)?
Answer: The RESULTS was 6.0.

Question: What about the RESULTS ([15]; nuarimol alone 0.50 ppm) of the same molecule?
Answer: The RESULTS was 7.0.

Question: And the RESULTS ([15]; nuarimol alone 1.00 ppm)?
Answer: Its RESULTS is 8.0.

Question: What about the RESULTS ([15]; nuarimol alone 2.00 ppm) of the same molecule?
Answer: Its RESULTS is 9.0.
